Measured values as given in patent publication US20250305004A1, “ENHANCING GENE TARGETING EFFICIENCY IN HUMAN CELLS WITH DNA-PK INHIBITOR TREATMENT” (The Board of Trustees of the Leland Stanford Junior …, priority 2022, published 2025).
“Also recorded” adds a separate entry of the source.

Key:
Type in all cases: cell-based, human
HBB locus in PSCs = assay: RNP/AAV6 gene targeting at HBB locus in PSCs; settings: UBC-GFP-bGHpA knock-in; 0.5 μM
Description: Gene targeting efficiency was measured by droplet digital PCR (ddPCR) and flow cytometry (for GFP) to measure the allelic targeting efficiency (FIG. 2B) and percentage of targeted cells (FIG. 2C) respectively. […] The treatment was carried out for 24 hours post gene targeting and the efficiency was calculated 1 week post gene targeting using ddPCR analysis.
First, we tested the treatment for editing the sickle cell disease (SCD) and cystic fibrosis (CF) mutations at HBB and CFTR loci respectively using the previously described Cas9 RNP and AAV6 donor reagents in WT PSC^71-73 (FIG. 19a-d).
PSC culture and genome editing. […] Gene targeting efficiency was analyzed at 4-6 days post-editing.
ddPCR analysis of targeted integration. Gene targeting efficiency for the knock-in of multi-kb sequences was measured through digital droplet PCR (ddPCR) analysis. […] After PCR, the droplets were analyzed using the QX200 Droplet Digital PCR reader (Biorad) and Quantasoft software was used to determine the number of copies of the target and reference DNA in the droplets. The allelic gene targeting efficiency was calculated as the percentage of target DNA copies relative to that of the reference. […]
ICE analysis for quantification of gene editing. […] Following PCR, the amplicons were detected on agarose gel and purified from the gel using GeneJet Gel Extraction Kit (Thermo Fisher Scientific, cat: K0692). […]

STING1 locus in HSPCs = assay: RNP/AAV6 gene targeting at STING1 locus in HSPCs; settings: seemingly inactive gRNA (sg5)
Text: ICE analysis for quantification of gene editing.
CD34+ HSPC culture and genome editing.

CCR5 locus in PSCs [1] = assay: Single cell cloning of PSCs gene targeted at CCR5 locus
Description: Allelic gene targeting efficiency was unaffected by pretreatment with AZD7648 with or without post treatment when compared to the corresponding controls.
For single cell cloning, gene targeted PSCs were plated at a density of 250 cells per well of a 6-well plate in mTeSR1 medium supplemented with 1× CloneR™2 ([…] technologies, cat: 100-0691) and incubated at 37° C. for 2 days. After 2 days, medium was switched to fresh mTeSR1 medium supplemented with 1× CloneR™2. 2 days later, the cells were switched to and maintained in mTeSR1 medium with daily media changes. At D7-D10, single cell colonies were picked by scraping and were then propagated individually. Gene targeting was assessed in single cell clones by ddPCR as mentioned above and by PCR amplifying the region spanning the knock-in to determine the frequency of mono-, bi-allelic and non-targeted clones.

CCR5 locus in PSCs [2] = assay: RNP/AAV6 gene targeting at CCR5 locus, knock-in of two stop codons, PSCs; settings: low activity gRNAs sg1 and sg4; 0.5 μM
Description: PSC culture and genome editing. […] For each nucleofection, RNP complex was prepared with 5 μg of Cas9 protein and 2 μg of gRNA and incubated for 15 mins at room temperature. PSCs were dissociated into single cells using Accutase (Innovative Cell Technologies, cat: AT104). […] Resuspended cells were added to one well of a 16-well Nucleocuvette Strip (Lonza) and nucleofection was performed in the 4D nucleofector (Lonza) using the program, CA137. Nucleofected PSCs were plated in mTeSR1 medium supplemented with 10 μM of Y27632 at a density of 100,000 cells per well in 48-well plate, AAV6 vector and DNA-PKcs inhibitors were added to the medium at indicated concentrations. […] From the following day, PSCs were cultured in mTeSR1 without Y27632. Gene targeting efficiency was analyzed at 4-6 days post-editing.
ICE analysis for quantification of gene editing. ICE CRISPR analysis tool (Synthego) was used to determine the allelic distribution of WT, INDEL and HDR frequencies for gene targeting involving knock-in of short sequences and for calculating the frequency of WT and INDEL alleles for gene targeting involving knock-in of multi-kb sequences. […] Following PCR, the amplicons were detected on agarose gel and purified from the gel using GeneJet Gel Extraction Kit (Thermo Fisher Scientific, cat: K0692). […]

T cells = assay: Viable cell count of CCR5 gene targeted T cells
Description: (FIG. 34d). Next, we tested the effect of compound treatment when titrating down the AAV6 donor amounts for gene targeting at the CCR5 locus. […] For this, we assessed the CD19-CAR knock-in at the TRAC gene locus in T cells using a previously reported gene editing strategy^87 (FIG. 14c).
Cell viability measurement. MTT assay was used for measuring the gene edited PSC viability. […] After this incubation, MTT was removed, and cells were lysed using 100 μl of lysis buffer (0.1N HCl and 0.5% SDS in isopropanol). After lysis, absorbance was measured at 570 nm with 650 nm as the reference using a SpectraMax M3 plate reader (Molecular devices). The absorbance values were used to calculate the cell viability of gene edited cells as a percentage relative to the mock cells. […] Viable cell counts were represented as percentage relative to the mock or untreated cells as indicated.

`Cc1cc2ncnn2cc1Nc1ncc2c(n1)n(C1CCOCC1)c(=O)n2C` [AZD7648, 7-methyl-2-((7-methyl-[1,2,4]triazolo[l,5-a]pyridin-6-yl)amino)-9-(tetrahydro-2H-pyran-4-yl)-7,9-dihydro-8H-purin-8-one] was tested, and the “effect on gene targeting vs untreated” value (HBB locus in PSCs) was “enhanced the gene targeting significantly; also recorded: significant improvement”, the “INDELs after gene targeting” value (STING1 locus in HSPCs) was “no INDELs” and the “clones with bi-allelic knock-in” value (CCR5 locus in PSCs [1]; 0.1 μM) was 60%. The “clones with bi-allelic knock-in” value (CCR5 locus in PSCs [1]; 0.5 μM, untreated 30%) was 90%, the “INDELs after gene targeting” value (CCR5 locus in PSCs [2]) was “INDEL-free” and the viable cell count (T cells; 0.5 μM, different AAV6 MOIs) was “very little drop in viable cell count”. The “viable cell count vs mock and untreated controls” value (T cells; 72 h post-gene targeting, different concentrations) was “minimal drop in viable cell count”.
